Here are results for twelve compounds from patent US20050282743A1, “Molecular interactions in cells” (Arbor Vita Corporation, priority 2001, published 2005).

Where two headings read alike, the source gives them in different places. Ends that are not written are not given here. Peptide text beside a SMILES is read from it. * marks the point of attachment. Biotin = O=C1N[C@H]2[C@H](CS[C@H]2CCCCC(=O)*)N1

What all share (assay type): binding
For one assay, the target named is T1, KIAA807 (Homo sapiens, UniProt Q6P0Q8).
T1 construct: made in house; host or cells: E. coli (DH5alpha, BL21 or JM109)
T1 sequence (Q6P0Q8 1104-1192 limits assumed): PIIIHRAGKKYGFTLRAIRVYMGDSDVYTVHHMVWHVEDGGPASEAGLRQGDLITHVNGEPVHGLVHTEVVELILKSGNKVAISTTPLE
Put plainly: G' assay, TABLE 12. The conditions noted are these: A450 nm class of biotinylated PL peptide bound; 0 in conc columns = peptide 10 uM, protein 5 ug/ml. In short, it runs like this: (§1)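 PL peptide binding to PDZ domain protein, peptide at 10 uM; protein at 5 ug/ml unless another concentration is listed for Kd determination. Bound peptide read at A450 nm and binned into classes 0–5.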

In assay [1] the target is T2, PDZ-domain polypeptide (GST/PDZ fusion protein) (Homo sapiens, UniProt Q6P0Q8).
T2 construct: made in house; host or cells: E. coli (DH5alpha, BL21 or JM109)
Put plainly: Apparent affinity (Kd) by titration of PL peptide in the G assay. In short, it runs like this:
(§2)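 A fixed concentration of GST/PDZ fusion protein, 5 ug/ml by default, was mixed in solution with increasing labeled PL peptide (e.g. 0.1 uM-1 mM). Reaction times ranged from 10 minutes to 2 days at 4-37° C. Complexes were separated from free peptide and detected via the label as in the G assay, apparent affinity coming from the saturating concentration.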

Assay [2] has as its target T3, PSD95 (PDZ Domain 1, 2, 3) (Homo sapiens, UniProt P78352).
T3 construct: When more than one PDZ domain was cloned, the DNA portion cloned represents the PDZ domains and the cDNA portion located between individual domains; made in house; host or cells: E. coli (DH5alpha, BL21 or JM109)
Put plainly: G' assay, TABLE 12. The conditions noted are these: A450 nm class of biotinylated PL peptide bound; 0 in conc columns = peptide 10 uM, protein 5 ug/ml. An outline of the steps:
as §1

Assay [3] concerns the target T4, PDZ-domain polypeptide (GST/PDZ fusion protein) (Homo sapiens, UniProt Q96JH8).
T4 construct: made in house; host or cells: E. coli (DH5alpha, BL21 or JM109)
T4 sequence (Q96JH8 1-1075): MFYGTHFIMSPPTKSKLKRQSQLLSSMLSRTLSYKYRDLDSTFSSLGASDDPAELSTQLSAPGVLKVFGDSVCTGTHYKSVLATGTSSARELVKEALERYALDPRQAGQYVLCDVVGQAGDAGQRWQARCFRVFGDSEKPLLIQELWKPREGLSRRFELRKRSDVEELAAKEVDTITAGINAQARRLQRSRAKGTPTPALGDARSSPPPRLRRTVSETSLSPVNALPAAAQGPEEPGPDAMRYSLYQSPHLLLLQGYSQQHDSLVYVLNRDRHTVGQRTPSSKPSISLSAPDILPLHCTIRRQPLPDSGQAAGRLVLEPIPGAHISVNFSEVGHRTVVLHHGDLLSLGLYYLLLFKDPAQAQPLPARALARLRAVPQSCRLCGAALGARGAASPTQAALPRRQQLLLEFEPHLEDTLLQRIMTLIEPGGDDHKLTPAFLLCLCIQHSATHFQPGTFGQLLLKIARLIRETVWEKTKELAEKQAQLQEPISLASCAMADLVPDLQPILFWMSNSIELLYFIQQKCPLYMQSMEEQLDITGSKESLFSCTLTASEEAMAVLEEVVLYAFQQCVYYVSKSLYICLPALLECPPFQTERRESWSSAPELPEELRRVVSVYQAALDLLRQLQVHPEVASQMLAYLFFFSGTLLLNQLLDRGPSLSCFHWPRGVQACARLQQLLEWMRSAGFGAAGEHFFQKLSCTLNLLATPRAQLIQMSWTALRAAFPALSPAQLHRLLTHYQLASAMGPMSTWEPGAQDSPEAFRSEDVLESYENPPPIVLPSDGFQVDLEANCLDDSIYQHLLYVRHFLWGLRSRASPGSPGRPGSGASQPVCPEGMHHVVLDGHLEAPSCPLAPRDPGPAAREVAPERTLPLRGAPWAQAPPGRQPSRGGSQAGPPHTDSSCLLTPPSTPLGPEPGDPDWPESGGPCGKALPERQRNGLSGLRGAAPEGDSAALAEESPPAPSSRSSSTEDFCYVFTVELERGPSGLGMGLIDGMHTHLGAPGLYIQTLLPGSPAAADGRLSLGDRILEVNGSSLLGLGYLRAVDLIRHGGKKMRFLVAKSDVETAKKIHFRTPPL
Put plainly: Apparent affinity (Kd) by titration of PL peptide in the G assay. To be noted: PDZ FLJ 10324, PDZ Domain 1; titration of the PL peptide; read-out: Peptide Optimal Conc (Kd, dissociation constant). In short, it runs like this:
as §2

T3 sequence (P78352 58-398 limits assumed): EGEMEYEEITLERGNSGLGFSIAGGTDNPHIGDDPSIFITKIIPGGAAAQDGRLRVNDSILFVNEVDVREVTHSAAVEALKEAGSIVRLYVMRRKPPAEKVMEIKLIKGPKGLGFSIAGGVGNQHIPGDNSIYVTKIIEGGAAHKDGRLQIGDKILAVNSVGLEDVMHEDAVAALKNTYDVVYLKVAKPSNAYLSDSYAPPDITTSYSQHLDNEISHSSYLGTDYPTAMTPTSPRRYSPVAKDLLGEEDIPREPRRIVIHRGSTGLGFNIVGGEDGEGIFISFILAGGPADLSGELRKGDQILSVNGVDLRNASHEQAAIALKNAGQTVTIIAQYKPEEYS
T2 sequence (Q6P0Q8 whole entry, the tested form may be a part): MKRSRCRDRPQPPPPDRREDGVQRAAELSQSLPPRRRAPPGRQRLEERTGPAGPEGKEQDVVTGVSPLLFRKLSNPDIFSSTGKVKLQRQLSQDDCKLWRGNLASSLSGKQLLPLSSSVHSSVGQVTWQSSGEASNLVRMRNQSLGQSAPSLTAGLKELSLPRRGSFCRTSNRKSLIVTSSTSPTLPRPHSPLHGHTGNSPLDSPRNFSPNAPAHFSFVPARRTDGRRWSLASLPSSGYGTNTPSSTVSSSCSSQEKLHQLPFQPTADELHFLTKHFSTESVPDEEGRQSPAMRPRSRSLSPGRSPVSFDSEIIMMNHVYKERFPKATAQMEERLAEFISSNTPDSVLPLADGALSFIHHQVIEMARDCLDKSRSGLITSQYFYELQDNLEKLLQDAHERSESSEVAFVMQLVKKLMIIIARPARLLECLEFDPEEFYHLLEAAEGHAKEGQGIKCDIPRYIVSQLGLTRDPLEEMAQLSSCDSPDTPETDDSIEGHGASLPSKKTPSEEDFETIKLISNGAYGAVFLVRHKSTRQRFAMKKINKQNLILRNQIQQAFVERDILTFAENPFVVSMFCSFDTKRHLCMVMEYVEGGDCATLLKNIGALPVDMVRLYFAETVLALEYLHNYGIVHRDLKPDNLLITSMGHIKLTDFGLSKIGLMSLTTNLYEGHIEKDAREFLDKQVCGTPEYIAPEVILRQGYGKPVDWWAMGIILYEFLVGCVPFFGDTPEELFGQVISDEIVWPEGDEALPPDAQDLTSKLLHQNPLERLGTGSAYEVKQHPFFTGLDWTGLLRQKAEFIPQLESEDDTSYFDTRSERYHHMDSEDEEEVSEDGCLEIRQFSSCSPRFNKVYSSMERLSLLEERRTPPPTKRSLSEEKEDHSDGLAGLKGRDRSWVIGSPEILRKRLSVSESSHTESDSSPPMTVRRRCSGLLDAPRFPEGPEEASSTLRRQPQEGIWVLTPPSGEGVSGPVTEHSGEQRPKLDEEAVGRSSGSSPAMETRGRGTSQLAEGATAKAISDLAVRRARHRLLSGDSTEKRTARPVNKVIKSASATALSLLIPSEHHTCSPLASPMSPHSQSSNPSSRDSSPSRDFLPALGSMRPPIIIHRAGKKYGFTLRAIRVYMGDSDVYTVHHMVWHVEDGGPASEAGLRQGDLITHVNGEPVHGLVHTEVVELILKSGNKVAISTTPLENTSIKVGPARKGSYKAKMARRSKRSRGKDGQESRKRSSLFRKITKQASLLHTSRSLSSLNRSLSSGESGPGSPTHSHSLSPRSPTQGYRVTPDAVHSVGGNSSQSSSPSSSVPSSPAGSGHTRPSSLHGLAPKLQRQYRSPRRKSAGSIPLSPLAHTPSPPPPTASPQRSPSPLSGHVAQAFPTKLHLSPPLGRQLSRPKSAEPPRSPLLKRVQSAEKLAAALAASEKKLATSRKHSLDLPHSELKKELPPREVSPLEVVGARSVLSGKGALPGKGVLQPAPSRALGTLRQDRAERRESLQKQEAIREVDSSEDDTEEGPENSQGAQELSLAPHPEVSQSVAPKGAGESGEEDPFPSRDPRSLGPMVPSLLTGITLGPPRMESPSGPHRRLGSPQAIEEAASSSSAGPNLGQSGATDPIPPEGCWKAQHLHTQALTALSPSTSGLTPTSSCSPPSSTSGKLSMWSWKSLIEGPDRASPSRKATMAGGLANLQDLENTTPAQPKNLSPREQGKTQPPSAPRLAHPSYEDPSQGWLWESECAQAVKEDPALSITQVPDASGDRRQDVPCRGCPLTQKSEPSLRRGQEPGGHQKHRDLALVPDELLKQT

As to “QATSRNGHSARQHVVADTEL (Biotin-QATSRNGHSARQHVVADTEL) [CD34]”, in the assay with KIAA807, the Classification is 5 (A450 nm of 4 more than 2× repeated). With `CC[C@H](C)[C@H](NC(=O)[C@H](CCC(N)=O)NC(=O)[C@@H](NC(=O)[C@H](Cc1c[nH]cn1)NC(=O)[C@H](CCC(N)=O)NC(=O)[C@H](CC(=O)O)NC(=O)[C@H](CCC(=O)O)NC(=O)[C@H](CC(=O)O)NC(=O)[C@H](Cc1ccccc1)NC(=O)[C@@H]1CCCN1C(=O)[C@H](CCC(=O)O)NC(=O)[C@H](CC(N)=O)NC(=O)[C@H](CCC(=O)O)NC(=O)[C@@H]1CCCN1C(=O)[C@H](CC(=O)O)NC(=O)[C@H](CO)NC(=O)[C@H](CC(=O)O)NC(=O)CCCC[C@@H]1SC[C@@H]2NC(=O)N[C@@H]21)[C@@H](C)O)C(=O)N[C@H](C(=O)N[C@@H](CCCCN)C(=O)N[C@H](C(=O)O)C(C)C)[C@@H](C)O` [PTEN], the Kd in assay [1] (PDZ KIAA0807(S), PDZ Domain 1, read-out: Peptide Optimal Conc (Kd by titration of the PL peptide)) was 300 nM. Consider `CSCC[C@H](NC(=O)[C@H](C)NC(=O)[C@H](CCCNC(=N)N)NC(=O)CNC(=O)[C@@H](NC(=O)[C@H](Cc1c[nH]c2ccccc12)NC(=O)[C@H](CCCNC(=N)N)NC(=O)CNC(=O)CCCC[C@@H]1SC[C@@H]2NC(=O)N[C@@H]21)[C@@H](C)O)C(=O)N[C@@H](CO)C(=O)N[C@@H](C)C(=O)N[C@@H](Cc1c[nH]c2ccccc12)C(=O)N[C@@H](CCCCN)C(=O)N1CCC[C@H]1C(=O)N[C@H](C(=O)N[C@@H](CCCNC(=N)N)C(=O)N[C@@H](CCCNC(=N)N)C(=O)N[C@@H](CCC(=O)O)C(=O)N[C@H](C(=O)N[C@@H](CCC(=O)O)C(=O)N[C@H](C(=O)O)C(C)C)[C@@H](C)O)[C@@H](C)O` [HPV E6 #35 (modified)] (Biotin-GRWTGRAMSAWKPTRRETEV-OH; C-terminus assumed), for which the Kd in assay [1] (PDZ KIAA0807(S), PDZ Domain 1, Protein Optimal Conc 0.5, read-out: Peptide Optimal Conc (Kd by titration of the PL peptide)) turned out to be 100 nM. With `CC[C@H](C)[C@H](NC(=O)[C@H](CC(=O)O)NC(=O)[C@H](CCC(=O)O)NC(=O)[C@H](CCCNC(=N)N)NC(=O)[C@@H](NC(=O)CCCC[C@@H]1SC[C@@H]2NC(=O)N[C@@H]21)[C@@H](C)O)C(=O)N[C@@H](Cc1ccc(O)cc1)C(=O)N[C@H](C(=O)N[C@@H](CC(N)=O)C(=O)N[C@@H](Cc1ccc(O)cc1)C(=O)N1CCC[C@H]1C(=O)N[C@H](C(=O)N[C@@H](Cc1ccccc1)C(=O)N[C@@H](CO)C(=O)N[C@@H](CCCNC(=N)N)C(=O)N[C@@H](CCCNC(=N)N)C(=O)N1CCC[C@H]1C(=O)N[C@@H](CCCCN)C(=O)N[C@H](C(=O)N[C@@H](CCCNC(=N)N)C(=O)N[C@H](C(=O)O)C(C)C)[C@@H](C)O)[C@@H](C)O)C(C)C` [DNAM-1] (Biotin-TREDIYVNYPTFSRRPKTRV-OH; C-terminus assumed), the Kd in assay [1] (Peptide Optimal Conc (Kd by titration of the PL peptide), PDZ KIAA807) came out at 2000 nM; in assay [1] (Peptide Optimal Conc (Kd by titration of the PL peptide), PDZ KIAA0807(S), PDZ Domain 1), 2000 nM. For the same compound, the Classification in assay [2] is recorded as 2 (A450 nm 1-2).

“ARHRVTSYTSSSVNVSSNL (Biotin-ARHRVTSYTSSSVNVSSNL) [IL-8RB]”: in assay [2], the Classification is listed as 1 (A450 nm 0-1). Turning to `CC[C@H](C)[C@H](NC(=O)[C@H](CCC(=O)O)NC(=O)[C@H](CC(N)=O)NC(=O)[C@H](CCCNC(=N)N)NC(=O)[C@H](Cc1ccccc1)NC(=O)[C@H](CC(N)=O)NC(=O)[C@H](CO)NC(=O)[C@H](CC(N)=O)NC(=O)[C@H](CCC(=O)O)NC(=O)[C@H](CO)NC(=O)[C@H](CC(=O)O)NC(=O)[C@H](CO)NC(=O)[C@@H](NC(=O)[C@@H](NC(=O)[C@H](CC(=O)O)NC(=O)[C@H](CCCCN)NC(=O)CCCC[C@@H]1SC[C@@H]2NC(=O)N[C@@H]21)[C@@H](C)CC)[C@@H](C)O)C(=O)N[C@@H](CCC(N)=O)C(=O)N[C@@H](CO)C(=O)N[C@@H](CC(C)C)C(=O)N[C@H](C(=O)O)C(C)C` [CD95] (Biotin-KDITSDSENSNFRNEIQSLV-OH; C-terminus assumed), the Classification in assay [2] is on record as 1 (A450 nm 0-1).

Turning to `CC[C@H](C)[C@H](NC(=O)[C@H](CO)NC(=O)[C@H](CCC(=O)O)NC(=O)[C@H](Cc1ccc(O)cc1)NC(=O)[C@H](CC(=O)O)NC(=O)[C@H](CC(N)=O)NC(=O)[C@H](CCC(=O)O)NC(=O)[C@H](CCCCN)NC(=O)CCCC[C@@H]1SC[C@@H]2NC(=O)N[C@@H]21)C(=O)N[C@@H](CO)C(=O)N[C@@H](CC(=O)O)C(=O)N[C@@H](CC(C)C)C(=O)N[C@@H](CCC(N)=O)C(=O)N[C@@H](CCC(N)=O)C(=O)NCC(=O)N[C@@H](CCCNC(=N)N)C(=O)N[C@@H](CC(=O)O)C(=O)N[C@H](C(=O)N[C@H](C(=O)N[C@@H](CCCNC(=N)N)C(=O)N[C@@H](CC(C)C)C(=O)O)[C@@H](C)O)[C@@H](C)CC` [PAG] (Biotin-KENDYESISDLQQGRDITRL-OH; C-terminus assumed), on KIAA807, the Classification was 5 (A450 nm of 4 more than 2× repeated).

“LASKSAEEGKQIPDSLSTDL (Biotin-LASKSAEEGKQIPDSLSTDL) [Dock2]”: the Classification in the assay with KIAA807 was 5 (A450 nm of 4 more than 2× repeated). Turning to `CC[C@H](C)[C@H](NC(=O)[C@H](Cc1ccc(O)cc1)NC(=O)[C@H](CC(C)C)NC(=O)[C@H](CCC(N)=O)NC(=O)[C@H](Cc1c[nH]cn1)NC(=O)[C@H](CO)NC(=O)[C@H](C)NC(=O)[C@H](CC(C)C)NC(=O)[C@@H](NC(=O)[C@H](CC(=O)O)NC(=O)[C@H](CCSC)NC(=O)[C@H](Cc1ccccc1)NC(=O)[C@@H]1CCCN1C(=O)[C@H](CCCNC(=N)N)NC(=O)[C@@H](NC(=O)[C@H](CC(C)C)NC(=O)[C@H](CC(N)=O)NC(=O)[C@H](CC(=O)O)NC(=O)[C@@H](NC(=O)[C@H](CO)NC(=O)CCCC[C@@H]1SC[C@@H]2NC(=O)N[C@@H]21)[C@@H](C)O)C(C)C)[C@@H](C)O)C(=O)O` [presenilin-2] (Biotin-STDNLVRPFMDTLASHQLYI-OH; C-terminus assumed), the Kd in assay [3] was 1000 nM. In the case of `CC[C@H](C)[C@H](NC(=O)[C@H](Cc1ccc(O)cc1)NC(=O)[C@@H](NC(=O)[C@@H]1CCCN1C(=O)[C@H](CCC(N)=O)NC(=O)[C@H](CCC(=O)O)NC(=O)[C@H](CCC(N)=O)NC(=O)[C@H](C)NC(=O)[C@@H](NC(=O)[C@H](CC(C)C)NC(=O)[C@H](CC(C)C)NC(=O)[C@H](CCCNC(=N)N)NC(=O)[C@H](Cc1ccc(O)cc1)NC(=O)[C@H](CCSC)NC(=O)[C@H](C)NC(=O)[C@H](C)NC(=O)[C@@H]1CCCN1C(=O)[C@H](CCSC)NC(=O)[C@@H](NC(=O)[C@H](CCCCN)NC(=O)CCCC[C@@H]1SC[C@@H]2NC(=O)N[C@@H]21)[C@@H](C)O)[C@@H](C)O)C(C)C)C(=O)O` [MINT-1] (Biotin-KTMPAAMYRLLTAQEQPVYI-OH; C-terminus assumed), the Kd in assay [3] is 1000 nM. `CC[C@H](C)[C@H](NC(=O)[C@H](CCC(N)=O)NC(=O)CCCC[C@@H]1SC[C@@H]2NC(=O)N[C@@H]21)C(=O)N[C@@H](CO)C(=O)N1CCC[C@H]1C(=O)NCC(=O)NCC(=O)N[C@@H](CC(C)C)C(=O)N[C@@H](CCC(=O)O)C(=O)N1CCC[C@H]1C(=O)N1CCC[C@H]1C(=O)N[C@@H](CO)C(=O)N[C@@H](CCC(=O)O)C(=O)N[C@@H](CCCCN)C(=O)N[C@@H](Cc1c[nH]cn1)C(=O)N[C@@H](Cc1ccccc1)C(=O)N[C@@H](CCCNC(=N)N)C(=O)N[C@@H](CCC(=O)O)C(=O)N[C@H](C(=O)N[C@@H](CCC(=O)O)C(=O)N[C@H](C(=O)O)C(C)C)[C@@H](C)O` [Tax]: the Classification (on KIAA807; in assay [2]) was 5 (A450 nm of 4 more than 2× repeated) each time. In the case of “ISGTPTSTMVHGMTSSSSVV (Biotin-ISGTPTSTMVHGMTSSSSVV) [Clasp-2]”, the Classification in assay [2] is recorded as 2 (A450 nm 1-2).
